Publication PMC3762675 (Chembiochem : a European journal of chemical biology, 2013)

Target: p38 and MK2 (Homo sapiens, UniProt Q16539)
Assay type: binding
Conditions: competitor 10 μM, LTR 2 500 nM, p38 400 nM, MK2 400 nM, UV 30 min

Chain of p38 and MK2 (Q16539 whole entry): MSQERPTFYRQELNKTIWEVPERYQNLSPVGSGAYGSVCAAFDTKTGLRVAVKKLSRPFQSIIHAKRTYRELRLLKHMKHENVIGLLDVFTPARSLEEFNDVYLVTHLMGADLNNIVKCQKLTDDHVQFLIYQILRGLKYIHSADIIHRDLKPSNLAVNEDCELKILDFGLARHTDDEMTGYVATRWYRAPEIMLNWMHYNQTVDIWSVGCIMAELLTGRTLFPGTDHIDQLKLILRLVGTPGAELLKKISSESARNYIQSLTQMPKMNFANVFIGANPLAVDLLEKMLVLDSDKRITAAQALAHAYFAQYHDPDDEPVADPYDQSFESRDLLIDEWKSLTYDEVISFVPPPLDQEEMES
Chain of p38 and MK2 (P49137 whole entry partner): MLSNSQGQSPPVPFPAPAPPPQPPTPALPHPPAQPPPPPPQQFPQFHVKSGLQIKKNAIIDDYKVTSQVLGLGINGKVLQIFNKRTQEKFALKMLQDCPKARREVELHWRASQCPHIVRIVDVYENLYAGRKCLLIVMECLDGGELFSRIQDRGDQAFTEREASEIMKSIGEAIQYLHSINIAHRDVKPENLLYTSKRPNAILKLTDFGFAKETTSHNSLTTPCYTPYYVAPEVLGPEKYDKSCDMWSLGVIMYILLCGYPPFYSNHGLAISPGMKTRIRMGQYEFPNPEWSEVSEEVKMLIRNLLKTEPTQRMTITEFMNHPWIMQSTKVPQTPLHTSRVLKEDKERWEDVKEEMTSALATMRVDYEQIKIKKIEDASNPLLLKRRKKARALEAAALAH

| blocking of labeling of p38 and MK2 | Structure (SMILES) |
| --- | --- |
| do not block labeling | C#Cc1cccc(Nc2ncnc3cc(OCCOC)c(OCCOC)cc23)c1 [erlotinib] |
| does not completely block labeling | Cc1nc(Nc2ncc(C(=O)Nc3c(C)cccc3Cl)s2)cc(N2CCN(CCO)CC2)n1 [dasatinib] |
